Results taken from patent publication US10479784B2, “Substituted pyrazin-2-amines as inhibitors of ATR kinase” (Vertex Pharmaceuticals Incorporated, priority 2008, dated 2019).

Target: full-length ATR (Homo sapiens (Human), UniProt Q13535)
Assay: ATR Inhibition Assay (radioactive-phosphate incorporation)
Format: biochemical
Conditions: read-out: ATR Ki
Summary of the method: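 Ki(app) was derived by non-linear regression of background-corrected initial rates of 33P incorporation into an 800 μM target peptide, read by phosphocellulose filter scintillation counting. Reaction conditions: 5 nM full-length ATR, 10 μM [γ-33P]ATP, pH 7.5 Tris buffer with MgCl2 and DTT, 25 °C, 10-min preincubation, 24 h run.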

Sequence of full-length ATR (Q13535 whole entry): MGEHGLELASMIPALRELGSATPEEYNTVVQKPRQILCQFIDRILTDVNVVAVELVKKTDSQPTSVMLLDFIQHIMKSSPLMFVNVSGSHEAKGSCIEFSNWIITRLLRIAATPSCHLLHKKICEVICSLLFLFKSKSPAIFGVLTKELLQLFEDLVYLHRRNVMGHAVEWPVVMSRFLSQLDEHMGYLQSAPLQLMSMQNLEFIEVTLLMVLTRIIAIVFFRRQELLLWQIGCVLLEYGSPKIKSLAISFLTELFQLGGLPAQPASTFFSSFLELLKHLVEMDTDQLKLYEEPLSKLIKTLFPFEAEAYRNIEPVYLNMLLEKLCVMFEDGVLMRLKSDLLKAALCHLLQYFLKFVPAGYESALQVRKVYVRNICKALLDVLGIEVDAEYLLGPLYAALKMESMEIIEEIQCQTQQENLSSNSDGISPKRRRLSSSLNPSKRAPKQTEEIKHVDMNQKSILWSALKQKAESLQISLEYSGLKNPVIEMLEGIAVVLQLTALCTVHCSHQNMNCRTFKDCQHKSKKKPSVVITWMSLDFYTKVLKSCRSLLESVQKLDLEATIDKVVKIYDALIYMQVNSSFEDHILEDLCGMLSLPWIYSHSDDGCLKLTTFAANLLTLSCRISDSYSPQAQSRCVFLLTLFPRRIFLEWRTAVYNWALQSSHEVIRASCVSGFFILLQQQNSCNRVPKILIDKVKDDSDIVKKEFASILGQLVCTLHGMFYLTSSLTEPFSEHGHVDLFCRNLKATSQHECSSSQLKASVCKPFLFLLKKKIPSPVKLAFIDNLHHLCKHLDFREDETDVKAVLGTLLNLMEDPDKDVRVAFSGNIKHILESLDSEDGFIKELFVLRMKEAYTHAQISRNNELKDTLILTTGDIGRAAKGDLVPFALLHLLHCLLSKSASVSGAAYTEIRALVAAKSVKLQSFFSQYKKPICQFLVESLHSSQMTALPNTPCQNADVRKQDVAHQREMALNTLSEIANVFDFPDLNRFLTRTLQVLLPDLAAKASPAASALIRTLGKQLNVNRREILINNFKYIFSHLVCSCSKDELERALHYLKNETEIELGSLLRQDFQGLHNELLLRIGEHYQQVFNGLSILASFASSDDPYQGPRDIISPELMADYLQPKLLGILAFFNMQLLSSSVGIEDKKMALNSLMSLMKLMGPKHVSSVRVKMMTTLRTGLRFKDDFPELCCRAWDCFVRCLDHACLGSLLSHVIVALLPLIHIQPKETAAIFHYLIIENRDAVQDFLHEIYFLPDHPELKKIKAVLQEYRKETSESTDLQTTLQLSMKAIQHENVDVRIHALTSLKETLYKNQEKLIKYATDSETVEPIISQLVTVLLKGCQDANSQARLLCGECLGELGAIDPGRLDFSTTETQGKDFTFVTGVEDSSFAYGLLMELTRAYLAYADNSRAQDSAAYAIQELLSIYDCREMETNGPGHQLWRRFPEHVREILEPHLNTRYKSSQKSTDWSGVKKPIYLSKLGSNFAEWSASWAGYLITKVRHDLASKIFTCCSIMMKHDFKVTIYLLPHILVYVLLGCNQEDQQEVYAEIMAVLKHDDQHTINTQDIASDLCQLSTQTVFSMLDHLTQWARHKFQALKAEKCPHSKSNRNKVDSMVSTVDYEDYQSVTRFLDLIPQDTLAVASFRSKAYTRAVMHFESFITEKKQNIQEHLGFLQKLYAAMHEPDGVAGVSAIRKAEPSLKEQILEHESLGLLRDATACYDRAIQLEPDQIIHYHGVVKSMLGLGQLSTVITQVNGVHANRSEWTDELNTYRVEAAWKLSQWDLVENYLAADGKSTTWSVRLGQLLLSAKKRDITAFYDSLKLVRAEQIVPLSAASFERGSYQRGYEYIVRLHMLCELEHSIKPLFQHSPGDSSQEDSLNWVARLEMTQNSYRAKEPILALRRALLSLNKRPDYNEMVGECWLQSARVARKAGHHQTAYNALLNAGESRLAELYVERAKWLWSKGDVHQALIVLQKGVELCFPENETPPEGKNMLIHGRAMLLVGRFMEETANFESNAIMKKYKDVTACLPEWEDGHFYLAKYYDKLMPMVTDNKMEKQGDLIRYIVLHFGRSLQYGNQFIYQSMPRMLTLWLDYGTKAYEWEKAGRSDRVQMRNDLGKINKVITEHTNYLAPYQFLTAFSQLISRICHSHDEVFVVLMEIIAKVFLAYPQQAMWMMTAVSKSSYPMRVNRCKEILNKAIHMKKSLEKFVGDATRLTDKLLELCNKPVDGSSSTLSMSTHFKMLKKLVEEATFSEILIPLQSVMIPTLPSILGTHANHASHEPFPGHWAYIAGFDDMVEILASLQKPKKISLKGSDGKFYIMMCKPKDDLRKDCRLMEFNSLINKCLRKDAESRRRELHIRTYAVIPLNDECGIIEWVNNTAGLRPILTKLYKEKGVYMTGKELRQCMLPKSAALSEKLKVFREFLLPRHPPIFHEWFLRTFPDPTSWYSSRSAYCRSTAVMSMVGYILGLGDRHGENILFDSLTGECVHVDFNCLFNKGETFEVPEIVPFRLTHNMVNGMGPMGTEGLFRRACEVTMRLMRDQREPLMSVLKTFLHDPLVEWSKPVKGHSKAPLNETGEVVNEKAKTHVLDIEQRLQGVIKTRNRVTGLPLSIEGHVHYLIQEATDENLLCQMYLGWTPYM

SMILES	Ki
CC(C)(C)CC(=O)N1CCCN(C(=O)c2ccc(-c3cnc(N)c(-c4nnc(-c5ccccc5)o4)n3)cc2)CC1 [IA-31]	≤ 10 nM
Nc1ncc(-c2cccc3[nH]ccc23)nc1-c1nnc(-c2ccccc2)o1 [IA-59]	10 to 100 nM
Nc1ncc(-c2cccnc2)nc1C(=O)Nc1ccc(F)cc1 [Compound I-94, 3-amino-N-(4-fluorophenyl)-6-(pyridin-3-yl)pyrazine-2-carboxamide]	100 to 5000 nM
CNc1nnc(-c2nc(-c3ccc(C(=O)N(C)C)cc3)cnc2N)o1 [IA-33]	100 to 5000 nM
CN1CCC(NC(=O)c2ccc(-c3cnc(N)c(C(=O)Nc4ccccc4)n3)cc2)CC1 [Compound I-64, 3-amino-6-(4-(1-methylpiperidin-4-ylcarbamoyl)phenyl)-N-phenylpyrazine-2-carboxamide]	100 to 5000 nM
Nc1ncc(-c2ccn[nH]2)nc1C(=O)Nc1ccccc1 [Compound I-31, 3-amino-N-phenyl-6-(1H-pyrazol-5-yl)pyrazine-2-carboxamide]	10 to 100 nM
COCCN(C)C(=O)c1cccc(-c2cnc(N)c(C(=O)Nc3ccccc3)n2)c1 [Compound I-67, 3-amino-6-(3-((2-methoxyethyl)(methyl)carbamoyl)phenyl)-N-phenylpyrazine-2-carboxamide]	10 to 100 nM
Nc1ncc(-c2ccc(S(=O)(=O)N3CCC3)cc2)nc1-c1nnc(-c2ccccc2)o1 [IA-112, 5-[4-(azetidin-1-ylsulfonyl)phenyl]-3-(5-phenyl-1,3,4-oxadiazol-2-yl)pyrazin-2-amine]	≤ 10 nM

Continued, values first:

Ki	SMILES
100 to 5000 nM	CC(N)C(=O)Nc1nnc(-c2nc(-c3ccc(S(=O)(=O)C(C)C)cc3)cnc2N)o1 (centres unmarked) [IA-272, 2-amino-N-[5-[3-amino-6-(4-isopropylsulfonylphenyl)pyrazin-2-yl]-1,3,4-oxadiazol-2-yl]propanamide]
10 to 100 nM	N#Cc1ccncc1-c1cnc(N)c(-c2nnc(-c3ccccc3)o2)n1 [IA-153, 3-(5-amino-6-(5-phenyl-1,3,4-oxadiazol-2-yl)pyrazin-2-yl)pyridine-4-carbonitrile]
10 to 100 nM	CS(=O)(=O)c1ccc(-c2cnc(N)c(C(=O)Nc3ccccn3)n2)cc1 [VII-6]
≤ 10 nM	CNCc1ccc(-c2nnc(-c3nc(-c4ccc(S(C)(=O)=O)cc4)cnc3N)o2)cc1 [IA-288, 3-[5-[4-(methylaminomethyl)phenyl]-1,3,4-oxadiazol-2-yl]-5-(4-methylsulfonylphenyl)pyrazin-2-amine]
10 to 100 nM	CN(C)C(=O)c1ccc(-c2cnc(N)c(-c3nnc(-c4ccc(CNC(=O)OC(C)(C)C)cc4)o3)n2)cc1 [IA-162, tert-butyl N-[[4-[5-[3-amino-6-[4-(dimethylcarbamoyl)phenyl]pyrazin-2-yl]-1,3,4-oxadiazol-2-yl]phenyl]methyl]carbamate]
≤ 10 nM	CNCc1ccc(-c2nnc(-c3nc(-c4ccc(S(=O)(=O)C(C)C)cc4)cnc3N)o2)cc1O [IA-320, 5-[5-[3-amino-6-(4-isopropylsulfonylphenyl)pyrazin-2-yl]-1,3,4-oxadiazol-2-yl]-2-(methylaminomethyl)phenol]
≤ 10 nM	CN(C)C(=O)c1ccc(-c2cnc(N)c(-c3nnc(-c4ccccc4I)o3)n2)cc1 [IA-205, 4-[5-amino-6-[5-(2-iodophenyl)-1,3,4-oxadiazol-2-yl]pyrazin-2-yl]-N,N-dimethyl-benzamide]
≤ 10 nM	CC(CCO)S(=O)(=O)c1ccc(-c2cnc(N)c(-c3nnc(-c4ccccc4F)o3)n2)cc1 (centres unmarked) [IA-339, 3-[4-[5-amino-6-[5-(2-fluorophenyl)-1,3,4-oxadiazol-2-yl]pyrazin-2-yl]phenyl]sulfonylbutan-1-ol]
≤ 10 nM	CNCc1ccc(-c2nnc(-c3nc(-c4ccc(S(=O)(=O)C(C)C)cc4)cnc3N)o2)cc1Cl [IA-309, 3-[5-[3-chloro-4-(methylaminomethyl)phenyl]-1,3,4-oxadiazol-2-yl]-5-(4-isopropylsulfonylphenyl)pyrazin-2-amine]
